Data set [1] can be described thus: Solubility of compound at pH 6.8 by shake-flask assay. Particulars: buffer; call rule not given here.
Data set [2] can be described thus: Intrinsic clearance in rat liver microsomes. The data set is classed as ADME, microsome. Particulars: read-out: CLH. On the technique in general: Liver microsomes are a subcellular fraction often used to study metabolism.
A short description of data set [3]: Apparent permeability across basolateral to apical side in human Caco2 cells at pH 7.4 by LC/MS/MS analysis. The settings on record: Caco-2, pH 7.4.
Data set [4] in a line: Intrinsic clearance in human liver microsomes. Particulars: read-out: CLH. The data set is classed as ADME, microsome.
The next data set concerns Calu-6. The data set is described as follows: Antiproliferative activity against human Calu6 cells harboring KRAS Q61K mutant assessed as reduction cell viability after 72 hrs by CellTiter-Glo assay. The settings on record: Calu-6, 72 h. The data set is classed as functional, cell-based. For orientation: Cellular ATP, detected with luciferase, serves as a proxy for viable cell number.

Data set [5] is described as follows: Apparent permeability across apical to basolateral side in human Caco2 cells at pH 7.4 by LC/MS/MS analysis. Particulars: Caco-2, pH 7.4. For orientation: Caco-2 monolayers are a common model of the intestinal barrier.
The target in data set [6] is T1, RAF proto-oncogene serine/threonine-protein kinase (Homo sapiens, UniProt P04049). The data set is described as follows: Inhibition CRAF in human Calu6 cells assessed as decrease in MEK phosphorylation after 2 hrs by HTRF method. The data set is classed as cell-based.
T1 sequence (P04049 whole entry): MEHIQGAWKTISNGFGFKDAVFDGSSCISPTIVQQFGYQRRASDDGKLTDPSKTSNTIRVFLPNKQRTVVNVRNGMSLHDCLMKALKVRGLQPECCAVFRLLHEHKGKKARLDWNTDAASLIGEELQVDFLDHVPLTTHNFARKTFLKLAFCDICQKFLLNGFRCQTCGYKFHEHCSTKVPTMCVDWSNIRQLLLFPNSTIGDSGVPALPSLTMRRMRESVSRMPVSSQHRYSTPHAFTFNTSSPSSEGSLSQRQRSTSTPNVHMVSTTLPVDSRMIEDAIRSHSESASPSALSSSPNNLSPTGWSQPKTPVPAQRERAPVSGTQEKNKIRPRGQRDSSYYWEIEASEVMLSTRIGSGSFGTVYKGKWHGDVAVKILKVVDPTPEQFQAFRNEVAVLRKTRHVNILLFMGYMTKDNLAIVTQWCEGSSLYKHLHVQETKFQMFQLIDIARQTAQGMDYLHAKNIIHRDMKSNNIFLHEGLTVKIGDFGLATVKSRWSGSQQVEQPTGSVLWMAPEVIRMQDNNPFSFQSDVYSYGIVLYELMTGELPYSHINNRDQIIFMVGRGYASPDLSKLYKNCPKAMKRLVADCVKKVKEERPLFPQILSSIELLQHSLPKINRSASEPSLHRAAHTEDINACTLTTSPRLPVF
For data set [7], the target named is RAF proto-oncogene serine/threonine-protein kinase (Homo sapiens, UniProt P04049, Y340E/Y341E). As to the kind of experiment: Inhibition of CRAF Y340E/Y341E mutant (unknown origin) using human MEK1 K97R mutant as substrate pretreated for 30 mins followed by substrate addition measured after 40 mins by alphascreen assay.
Sequence of RAF proto-oncogene serine/threonine-protein kinase (Homo sapiens, UniProt P04049, Y340E/Y341E) (P04049 whole entry Y340E/Y341E, the tested form may be a part): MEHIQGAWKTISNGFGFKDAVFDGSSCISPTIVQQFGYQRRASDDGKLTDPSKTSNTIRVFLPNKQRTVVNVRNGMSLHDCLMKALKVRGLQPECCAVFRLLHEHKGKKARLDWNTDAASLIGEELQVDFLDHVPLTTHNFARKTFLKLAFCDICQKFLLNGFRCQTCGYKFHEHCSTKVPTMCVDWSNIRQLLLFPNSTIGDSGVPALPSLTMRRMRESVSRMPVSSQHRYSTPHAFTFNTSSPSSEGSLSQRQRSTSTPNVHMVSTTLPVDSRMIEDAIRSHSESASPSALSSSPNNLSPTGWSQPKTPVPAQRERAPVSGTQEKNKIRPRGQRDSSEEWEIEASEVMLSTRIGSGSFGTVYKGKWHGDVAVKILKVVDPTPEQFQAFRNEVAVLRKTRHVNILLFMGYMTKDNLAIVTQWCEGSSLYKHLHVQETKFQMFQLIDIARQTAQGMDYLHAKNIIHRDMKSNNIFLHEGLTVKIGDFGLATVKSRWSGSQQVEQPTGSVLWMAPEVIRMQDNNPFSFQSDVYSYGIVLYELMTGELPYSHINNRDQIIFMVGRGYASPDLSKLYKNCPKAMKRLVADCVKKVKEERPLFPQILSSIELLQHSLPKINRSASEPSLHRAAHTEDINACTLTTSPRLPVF
The target of data set [8] is Serine/threonine-protein kinase B-raf (Homo sapiens, UniProt P15056). The data set is described as follows: Binding affinity to human BRAF (429 to 741 residues) expressed in mammalian expression system at 1 uM by kinome scan assay relative to control.
Sequence of Serine/threonine-protein kinase B-raf (P15056 whole entry, the tested form may be a part): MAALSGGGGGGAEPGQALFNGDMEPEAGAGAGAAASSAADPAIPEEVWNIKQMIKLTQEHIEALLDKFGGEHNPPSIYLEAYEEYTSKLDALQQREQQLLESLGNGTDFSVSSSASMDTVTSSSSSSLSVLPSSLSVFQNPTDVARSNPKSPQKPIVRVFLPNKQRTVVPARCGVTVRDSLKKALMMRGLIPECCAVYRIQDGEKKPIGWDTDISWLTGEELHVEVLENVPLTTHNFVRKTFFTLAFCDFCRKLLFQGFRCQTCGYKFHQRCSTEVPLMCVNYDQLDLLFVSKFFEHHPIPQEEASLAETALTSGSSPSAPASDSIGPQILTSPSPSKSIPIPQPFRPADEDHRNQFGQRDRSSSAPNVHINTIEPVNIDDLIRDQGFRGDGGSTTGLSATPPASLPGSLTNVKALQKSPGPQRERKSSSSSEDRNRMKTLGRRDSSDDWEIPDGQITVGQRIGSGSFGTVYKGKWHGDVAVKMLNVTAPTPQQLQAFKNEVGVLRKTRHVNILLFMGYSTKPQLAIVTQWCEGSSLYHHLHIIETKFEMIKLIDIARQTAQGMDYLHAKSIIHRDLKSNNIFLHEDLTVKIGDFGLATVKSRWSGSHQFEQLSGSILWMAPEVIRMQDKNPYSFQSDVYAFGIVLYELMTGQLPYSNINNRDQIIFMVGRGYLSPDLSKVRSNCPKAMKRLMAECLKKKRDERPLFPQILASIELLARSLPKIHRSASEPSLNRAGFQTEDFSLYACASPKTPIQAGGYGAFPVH
Data set [9] concerns the target Platelet-derived growth factor receptor alpha (Homo sapiens) (UniProt P16234). The data set is described as follows: Binding affinity to human PDGFRalpha (330 to 640 residues) expressed in mammalian expression system at 1 uM by kinome scan assay relative to control.
A short description of data set [10]: Clearance in Sprague-Dawley rat 1 mg/kg, iv or 3 mg/kg, po. The data set is classed as ADME, organism-based. The settings on record: in vivo.
Data set [11] can be described thus: Cmax in Sprague-Dawley rat at 3 mg/kg, po. Particulars: in vivo. More on the design: dose 3 mg/kg, route oral. The data set is classed as ADME, organism-based.
Data set [12] is described as follows: AUC in Sprague-Dawley rat at 3 mg/kg, po. Particulars: in vivo. The data set is classed as ADME, organism-based.
Data set [13] has as its system Serine/threonine-protein kinase B-raf (Homo sapiens), P15056 [V600E]. As to the kind of experiment: Binding affinity to human BRAF V600E mutant (429 to 741 residues) expressed in mammalian expression system at 1 uM by kinome scan assay relative to control.
A short description of data set [14]: Oral bioavailability in Sprague-Dawley rat at 3 mg/kg. The data set is classed as ADME, organism-based. Particulars: in vivo.
Data set [15] concerns the target T1, RAF proto-oncogene serine/threonine-protein kinase. The data set is described as follows: Activation of CRAF in human Calu6 cells assessed as increase in MEK phosphorylation at 3 uM after 2 hrs by FRET assay. The data set is classed as cell-based.

≈ marks a conversion by molar mass, not a printed value.

Sequence of Serine/threonine-protein kinase B-raf (Homo sapiens), P15056 [V600E] (P15056 whole entry V600E, the tested form may be a part): as the sequence (P15056 whole entry, the tested form may be a part) above, with V600E counted along it
Sequence of Platelet-derived growth factor receptor alpha (Homo sapiens) (P16234 whole entry, the tested form may be a part): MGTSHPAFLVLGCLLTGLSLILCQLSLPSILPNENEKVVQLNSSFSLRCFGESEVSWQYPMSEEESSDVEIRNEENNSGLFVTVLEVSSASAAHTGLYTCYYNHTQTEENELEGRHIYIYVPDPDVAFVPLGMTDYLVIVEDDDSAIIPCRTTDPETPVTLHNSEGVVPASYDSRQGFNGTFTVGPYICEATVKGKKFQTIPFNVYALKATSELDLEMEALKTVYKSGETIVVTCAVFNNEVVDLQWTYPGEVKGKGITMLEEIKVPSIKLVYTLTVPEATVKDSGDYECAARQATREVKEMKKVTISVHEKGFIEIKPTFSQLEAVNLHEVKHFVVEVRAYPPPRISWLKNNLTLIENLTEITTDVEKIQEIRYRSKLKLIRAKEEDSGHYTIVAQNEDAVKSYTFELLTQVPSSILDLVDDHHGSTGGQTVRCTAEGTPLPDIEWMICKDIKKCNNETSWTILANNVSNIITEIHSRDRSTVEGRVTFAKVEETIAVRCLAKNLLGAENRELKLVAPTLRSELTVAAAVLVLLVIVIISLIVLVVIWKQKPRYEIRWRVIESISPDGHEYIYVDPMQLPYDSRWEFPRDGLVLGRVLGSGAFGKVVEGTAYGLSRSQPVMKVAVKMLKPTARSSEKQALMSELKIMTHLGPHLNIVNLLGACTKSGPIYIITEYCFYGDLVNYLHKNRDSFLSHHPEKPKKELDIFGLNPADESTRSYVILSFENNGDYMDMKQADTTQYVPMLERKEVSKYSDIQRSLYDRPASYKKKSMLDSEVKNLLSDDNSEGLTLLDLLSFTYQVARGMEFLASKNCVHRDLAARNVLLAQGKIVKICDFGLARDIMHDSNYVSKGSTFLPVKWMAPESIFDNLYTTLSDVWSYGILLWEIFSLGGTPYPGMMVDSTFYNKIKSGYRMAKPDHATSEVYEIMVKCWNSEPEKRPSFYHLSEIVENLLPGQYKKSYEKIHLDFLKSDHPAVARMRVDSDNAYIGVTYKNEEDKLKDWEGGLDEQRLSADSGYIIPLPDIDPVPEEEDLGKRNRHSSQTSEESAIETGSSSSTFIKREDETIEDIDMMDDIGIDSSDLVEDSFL

As a reminder, the solubility (thermodynamic) is the concentration in solution at equilibrium with solid. The Papp B→A is how fast a substance crosses the layer from the basolateral side. The term EC50 denotes the concentration at which the effect is half-maximal. The term Papp A→B denotes how fast a substance crosses the layer from the apical side. For the compound `Cc1ccc(NC(=O)c2cccc(C(F)(F)F)c2)cc1-c1cc(N2CCOCC2)ncn1`, in data set [1], the thermodynamic solubility was found to be 16 µM (≈ 7.08 µg/mL). Besides, the microsomal CLint in data set [2] was 79 µL/min/mg; in data set [4], 43 µL/min/mg. The Papp B→A in data set [3] was 38 ×10⁻⁶ cm/s. Besides, the EC50 with Calu-6 was 5200 nM. The Papp A→B in [5] amounted to 19 ×10⁻⁶ cm/s.

Usually IC50 stands for the concentration at which inhibition is half-maximal. With `Cc1ncc(NC(=O)c2ccnc(C(F)(F)F)c2)cc1-c1cc(N2CCOCC2)c(=O)n(C)c1`, the thermodynamic solubility in [1] is 1040 µM (≈ 492 µg/mL). Also, the EC50 in data set [6] was 3960 nM; with Calu-6 it was over 30000 nM. Besides, in data set [3], the Papp B→A amounted to 39 ×10⁻⁶ cm/s. The IC50 in [7] stood at 1 nM. Moreover, the microsomal CLint in data set [4] is under 7.7 µL/min/mg. In data set [5], the Papp A→B was 3 ×10⁻⁶ cm/s.

In general, Cmax refers to the peak of the concentration-time curve. What is called AUC is the area under the concentration-time curve, a measure of exposure. A lower AUC goes with low exposure. The bioavailability is dose-corrected exposure relative to a reference, in per cent. A lower bioavailability goes with poor availability. As for `Cc1ccc(NC(=O)c2cccc(C(F)(F)F)c2)cc1-c1cc(N2CCOCC2)c(=O)n(C)c1`, the Activity in data set [8] is over 99%; in data set [9] it was 89%; in data set [13] it was over 99%. For the same compound, the solubility (thermodynamic) in data set [1] came out at 70 µM (≈ 33 µg/mL). The clearance in [10] came to 53 mL/min/kg. This compound had a Cmax in [11] of 150 nM. The same compound had an AUC in [12] of 0.438 µM·h. Besides, the results for the microsomal CLint in data set [2] and in data set [4] were 46 µL/min/mg and 51 µL/min/mg, respectively. Moreover, in [14], the bioavailability was 22%. Besides, in data set [3], the Papp B→A came to 22 ×10⁻⁶ cm/s. Moreover, the EC50 in the data set on Calu-6 turned out to be 500 nM. In addition, in data set [5], the apical-to-basolateral permeability (Papp A→B) amounted to 20 ×10⁻⁶ cm/s.

For the compound `COc1ncc(-c2cc(NC(=O)c3cccc(C(F)(F)F)c3)cnc2C)cc1N1CCOCC1`, in data set [1], the solubility (thermodynamic) is under 2 µM. In addition, the Papp B→A in data set [3] is 14 ×10⁻⁶ cm/s. For the same compound, the EC50 with Calu-6 is 1600 nM. Further, the Papp A→B in data set [5] was 16 ×10⁻⁶ cm/s.

`Cc1ncc(NC(=O)c2cccc(C(F)(F)F)c2)cc1-c1cnc(OCCO)c(N2CCOCC2)c1` gave a thermodynamic solubility in data set [1] of 24 µM (≈ 12.1 µg/mL). In data set [3], the Papp B→A came out at 45 ×10⁻⁶ cm/s. Moreover, the EC50 with Calu-6 is 2500 nM. For the same compound, the Papp A→B in data set [5] amounted to 5 ×10⁻⁶ cm/s.

The compound `Cc1ncc(NC(=O)c2cccc(C(F)(F)F)c2)cc1-c1cnc(OC(C)C)c(N2CCOCC2)c1` showed a solubility (thermodynamic) in data set [1] of under 2 µM. Further, the EC50 with Calu-6 was found to be 2900 nM.

Consider `Cc1ncc(NC(=O)c2cccc(C(F)(F)F)c2)cc1-c1cc(N2CCOCC2)c(=O)n(C)c1`, for which the solubility (thermodynamic) in [1] was determined as 20 µM (≈ 9.45 µg/mL). Further, the figures for the EC50 (in data set [6]; with Calu-6) were 460 nM and 1800 nM, respectively. Further, in data set [3], the Papp B→A is 43 ×10⁻⁶ cm/s. Moreover, the microsomal CLint in data set [4] was under 7.7 µL/min/mg. Further, in data set [5], the Papp A→B worked out at 7 ×10⁻⁶ cm/s.

Regarding `Cc1ccc(C(=O)Nc2cccc(C(F)(F)F)c2)cc1-c1cc(N2CCOCC2)ncn1`, the figures for the EC50 (in data set [6]; with Calu-6) were 700 nM and 3100 nM, respectively. Moreover, the IC50 in data set [7] stood at 2 nM.

On to `Cc1ccc(NC(=O)c2cccc(C(F)(F)F)c2)cc1-c1cn(C)c(=O)c(N2CCOCC2)n1`, for which the thermodynamic solubility in data set [1] is 190 µM (≈ 89.8 µg/mL). Further, the figures for the EC50 (in [6]; with Calu-6) were 200 nM and 4100 nM, respectively. Besides, the Papp B→A in data set [3] is 16 ×10⁻⁶ cm/s. Besides, in data set [4], the microsomal CLint came out at 110 µL/min/mg. In addition, the Papp A→B in data set [5] was found to be 21 ×10⁻⁶ cm/s.

`Cc1ccc(NC(=O)c2cccc(C(F)(F)F)c2)cc1-c1ccnc(N2CCOCC2)c1` registered a solubility (thermodynamic) in data set [1] of under 2 µM. Besides, the EC50 came out at 200 nM in data set [6] and 700 nM in the data set with Calu-6. The Papp B→A in [3] is 1.8 ×10⁻⁶ cm/s.

As to `Cc1ccc(C(=O)Nc2cccc(C(C)(C)C)c2)cc1-c1cc(N2CCOCC2)ncn1`, in data set [1], the thermodynamic solubility was 20 µM (≈ 8.61 µg/mL). The EC50 was 200 nM in data set [6] and 6400 nM in the data set with Calu-6. Moreover, the figures for the microsomal CLint in data set [2] and in [4] were 210 µL/min/mg and 170 µL/min/mg, respectively. In addition, the Papp B→A in data set [3] was determined as 15 ×10⁻⁶ cm/s. In addition, in data set [7], the IC50 was found to be 0.5 nM. The Papp A→B in [5] was found to be 15 ×10⁻⁶ cm/s.

Take `CCCS(=O)(=O)Nc1ccc(F)c(C(=O)c2c[nH]c3ncc(-c4ccc(Cl)cc4)cc23)c1F` [VEMURAFENIB]: the result in [15] was Active.

The values above are taken from ChEMBL document CHEMBL4011620, “Design and Discovery of N-(2-Methyl-5'-morpholino-6'-((tetrahydro-2H-pyran-4-yl)oxy)-[3,3'-bipyridin]-5-yl)-3-(trifluoromethyl)benzamide (RAF709): A Potent, Selective, and Efficacious RAF Inhibitor Targeting RAS Mutant Cancers” (J Med Chem, 2017).
